According to patent US8003689B2, “Metabolites of selective androgen receptor modulators and methods of use thereof” (GTx, Inc., priority 2008, dated 2011):

Assays:
[1] = system: Caco-2 epithelial monolayers; test: Permeability and efflux potential across Caco-2 monolayers; set-up: Papp A→B / Papp B→A: dose or concentration left out as unconfirmed
Protocol: (§1) Permeability (and efflux potential) was measured in the Apical (pH 6.5) to Basolateral (pH 7.4) and Basolateral (pH 7.4) to Apical (pH 6.5) directions across polarized, Caco-2 epithelial monolayers. Compound stocks were tested at a final concentration of […]. The concentration of drug in the receiver well was measured by LC/MS/MS using a standard curve.

[2] = as above; set-up: Papp A→B / Papp B→A: dose or concentration left out as unconfirmed; conditions: human
Protocol: as §1

[3] = system: primary monkey hepatocytes; test: Metabolic stability in primary monkey hepatocytes; format: in vitro ADME
[4] = Metabolic stability in primary monkey hepatocytes; format: in vitro ADME
[5] = Metabolic stability in human liver microsomes; format: in vitro ADME
Protocol: Human liver microsomes and hepatocytes were utilized at a final concentration of 1.0 mg/ml and 1×10^6 cells/ml, respectively. Duplicate wells were used for each time point (0, 5, 10, 30, and 60 minutes). The concentrations of parent drug remaining in each well were analyzed on an MDS/Sciex API4000 Q Trap system with electrospray ionization (ESI) in the positive and/or negative SIM mode, depending on the test compound(s). […] For hepatocyte assays, cell viability was also monitored at each time point (from replicate wells) using the Trypan Blue exclusion method.

CYP2C9 = CYP2C9 induction in primary human hepatocytes; format: in vitro ADME
Protocol: (§2) Cytochrome P450 enzyme inhibition was measured using human, cDNA-expressed CYP3A4, 2D6, 2C19, 2C9, and 1A2 enzymes. Analogues of the model substrate coumarin were utilized for each isozyme, at a concentration near the apparent Km of this substrate. Compound stocks were tested using an 8-point dose-response curve in duplicate (ranging from […]). […] For microsome-based CYP inhibition measurements, all substrates were utilized at the approximate Km value. […] Duplicate wells in the induction assay were used to measure both functionality and expression of the CYP enzyme.

CYP3A4 = CYP3A4 induction in primary human hepatocytes; format: in vitro ADME
Protocol: as §2

[6] = Phase I microsome reactions of Compound II, mouse; format: in vitro ADME; conditions: Mouse liver microsomes; not absolutely quantitative (n = 2)
Protocol: (§3) Test compound stock solutions were prepared in acetonitrile at 10 mM, 200 times (200×) the final concentration. The stock solutions were added in incubation mixtures to obtain the final drug concentration of 50 μM, containing 0.5% acetonitrile. A concentration of 50 μM was utilized to allow for detection of possible minor metabolites (select studies were run at 10 μM for confirmatory purposes). Human, monkey, dog, rat, mouse microsomes were all utilized at a final concentration of 1.0 mg/ml. Duplicate wells were used for each time point (0 and 120 minutes). Incubation was conducted at 37° C. in a shaking water bath. The final volume for each reaction was 200 μl, composed of: 66 μl of 0.2 M KPO4 buffer, (pH 7.4); 73 μl of H2O, 10 μl of 20 mg/ml microsome stock; 1.0 μl of 10 mM compound stock, and 50 μl of NRS solution. The NRS solution consisting of glucose-6-phosphate dehydrogenase, NADP+, MgCl2, and glucose-6-phosphate, was prepared as described in manufacturer's instructions. […]
(§4) The mass spectrometers were operated in EMS mode in order to detect all possible metabolites. […] Intensity of putative metabolite was semi-quantitated using the peak area of the metabolites in XIC, which was subtracted with the peak area of time zero control at the same retention time with the metabolites.

Rat Hepatocytes [7] = test: Hepatocyte assay of Compound II, rat; format: in vitro ADME
Protocol: (§5) The stock solutions (10 mM in acetonitrile) for the test compounds were diluted in the incubation media to a working concentration of 100 μM (2×). Thawing frozen hepatocytes was followed by performing Percoll purification as described in manufacturer's manual. Primary hepatocytes were resuspended in incubation media and viability was measured using trypan blue exclusion method. The initial viability score was registered as ‘T0’ (time point of 0 minute), and viability was required to be at least ˜70% at this point for the experiment to continue. Cells were washed a second time (60 g for 5 minutes) with supplemented DMEM and the final concentration was adjusted to […] (2×). Samples were set up in 48-well plates, using 2 wells per each time point. A trypan blue well was also set up for viability analysis at the end of study (T=120 min). 100 μl of the 2× drug solution was combined with 100 μl of the 2× hepatocyte suspension. Final concentration was […] (200,000 cells/well) and 50 μM compound. Final concentration of acetonitrile was 0.5%. […]
as §4

[8] = Phase I and II microsome reactions (+UDPGA) of Compound II, monkey; format: in vitro ADME; conditions: Monkey liver microsomes (+UDPGA)
Protocol: (§6) For microsome reactions performed under conditions allowing for both phase I and II metabolism, the initial procedure and reaction conditions were followed similarly as described above. Additional cofactors were also included in each reaction to maximize the potential for in vitro glucuronidation to occur. UDPGA was added at a final concentration of 5.0 mM. Saccharolactone (β-glucuronidase inhibitor) and alamethicin (pore forming peptide) were added to each reaction at a final concentration of 5.0 mM and 50 μg/ml, respectively.
(§7) Each 200 μl microsomal reaction solution was composed of: 66 μl of 0.2 M KPO4 buffer, (pH 7.4); 50 μl of NRS solution (as described above); 66 μl of UDPGA (15 mM stock); 5.0 μl of saccharolactone (200 mM stock); 0.5 μl of alamethicin (20 mg/ml); 0.6 μl of MgCl2 (1 M stock); and 10 μl of microsomes (20 mg/ml stock).
(§8) At the end of incubation, 100 μl of reaction solution under incubation was transferred to a sample well containing 100 μl of ice cold acetonitrile to quench the reaction. […]
as §4

mouse hepatocytes = test: Hepatocyte assay of Compound II, mouse; format: in vitro ADME
Protocol: as §5, §4

[9] = Phase I and II microsome reactions (+UDPGA) of Compound II, dog; format: in vitro ADME; conditions: Dog liver microsomes (+UDPGA)
Protocol: as §6, §7, §8, §4

[10] = Phase I and II microsome reactions (+UDPGA) of Compound II, human; format: in vitro ADME; conditions: Human liver microsomes (+UDPGA)
Protocol: as §6, §7, §8, §4

[11] = Phase I microsome reactions of Compound II, human; format: in vitro ADME; conditions: Human liver microsomes; not absolutely quantitative (n = 2)
Protocol: as §3, §4

monkey hepatocytes = test: Hepatocyte assay of Compound II, monkey; format: in vitro ADME
Protocol: as §5, §4

[12] = Phase I microsome reactions of Compound II, dog; format: in vitro ADME; conditions: Dog liver microsomes; not absolutely quantitative (n = 2)
Protocol: as §3, §4

[13] = Phase I and II microsome reactions (+UDPGA) of Compound II, rat; format: in vitro ADME; conditions: Rat liver microsomes (+UDPGA)
Protocol: as §6, §7, §8, §4

[14] = Phase I and II microsome reactions (+UDPGA) of Compound II, mouse; format: in vitro ADME; conditions: Mouse liver microsomes (+UDPGA)
Protocol: as §6, §7, §8, §4

[15] = Phase I microsome reactions of Compound II, monkey; format: in vitro ADME; conditions: Monkey liver microsomes; not absolutely quantitative (n = 2)
Protocol: as §3, §4

[16] = Phase I microsome reactions of Compound II, rat; format: in vitro ADME; conditions: Rat liver microsomes; not absolutely quantitative (n = 2)
Protocol: as §3, §4

human hepatocytes = test: Hepatocyte assay of Compound II, human; format: in vitro ADME
Protocol: as §5, §4

dog hepatocytes = test: Hepatocyte assay of Compound II, dog; format: in vitro ADME
Protocol: as §5, §4

[17] = In vitro metabolites of Compound I in rat liver microsomes; format: in vitro ADME; conditions: metabolite formed from Compound I
Rat Hepatocytes [18] = test: In vitro metabolites of Compound I in rat hepatocytes; format: in vitro ADME; conditions: metabolite formed from Compound I
[19] = Human Liver Microsomes, Phase I
[20] = Human Liver Microsomes, Phase I + II

## C[C@](O)(COc1ccc(C#N)cc1)C(=O)Nc1ccc(C#N)c(C(F)(F)F)c1 [Compound I, (S)—N-(4-cyano-3-(trifluoromethyl)phenyl)-3-(4-cyanophenoxy)-2-hydroxy-2-methylpropanamide]
[1]; Caco-2 permeability assays
  efflux potential: low
[1]; classified from Papp (A-B)
  Permeability Classification: high
[2]; Caco-2
  Papp B→A: 29 ×10⁻⁶ cm/s
[2]; Caco-2, Permeability Classification, classified from Papp (A-B)
  Papp A→B: > 10 ×10⁻⁶ cm/s
[3]
  Half-Life: Stable
[4]
  CLint scaled: < 1 mL/min/kg
[5]; [19]
  Half-Life Phase I: Stable
  microsomal CLint: < 1000 µL/min/mg
[5]; [20]
  CLint Phase I + II: <1000 µL/min/mg
  Half-Life Phase I + II: Stable
[5]; microsomal and hepatocyte assays, both phase I and phase I/II metabolic conditions
  in vitro half-life (stability in words): mostly stable
CYP2C9
  induction of CYP2C9 activity: does not induce
CYP3A4
  induction of CYP3A4 activity: does not induce

## N#Cc1ccc(N)cc1Cl [Compound 151]
[6]
  Relative Percent of Extracted Ion Chromatogram (XIC) for Phase I metabolites of Compound II: 4%
Rat Hepatocytes [7]
  Relative Percent of XIC for Phase I and II Metabolites of Compound II: 0.9%
[8]
  Relative Percent of XIC for Phase I and Glucuronide Metabolites of Compound II: 1.6%
Mouse hepatocytes
  Relative Percent of XIC for Phase I and II Metabolites of Compound II: 0.8%
[9]
  Relative Percent of XIC for Phase I and Glucuronide Metabolites of Compound II: 2.9%
[10]
  Relative Percent of XIC for Phase I and Glucuronide Metabolites of Compound II: 0.8%
[11]
  Relative Percent of Extracted Ion Chromatogram (XIC) for Phase I metabolites of Compound II: 3%
Monkey hepatocytes
  Relative Percent of XIC for Phase I and II Metabolites of Compound II: 2.2%
[12]
  Relative Percent of Extracted Ion Chromatogram (XIC) for Phase I metabolites of Compound II: 6%
[13]
  Relative Percent of XIC for Phase I and Glucuronide Metabolites of Compound II: 1.4%
[14]
  Relative Percent of XIC for Phase I and Glucuronide Metabolites of Compound II: 1.1%
[15]
  Relative Percent of Extracted Ion Chromatogram (XIC) for Phase I metabolites of Compound II: 4%
[16]
  Relative Percent of Extracted Ion Chromatogram (XIC) for Phase I metabolites of Compound II: 4%
Human hepatocytes
  Relative Percent of XIC for Phase I and II Metabolites of Compound II: 0.5%
Dog hepatocytes
  Relative Percent of XIC for Phase I and II Metabolites of Compound II: 4.7%

## C[C@@](COc1ccc(C#N)cc1)(OC1OC(C(=O)O)C(O)C(O)C1O)C(=O)Nc1ccc(C#N)c(C(F)(F)F)c1 (stereo partly drawn) [Compound 564]
[17]
  relative abundance of in vitro metabolites of Compound I (m/z 388): 1.92
Rat Hepatocytes [18]
  relative abundance of in vitro metabolites of Compound I (m/z 388): 0.37
